In patent publication US20030225152A1, “3-(Arylamino)methylene-1, 3-dihydro-2h-indol-2-ones as kinase inhibitors” (priority 2001, published 2003):

What was measured:
[1] = molecular target: T1, cytoplasmic domain of the human VEGF receptor (VEGFR-2) (Homo sapiens, UniProt P35968); assay: KDR Assay; format: biochemical; conditions: His-VEGFR-2; 3.6 μM ATP
T1 construct: The cytoplasmic domain of the human VEGF receptor (VEGFR-2) was expressed as a Histidine-tagged fusion protein; Histidine tag
Method in brief: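 IC50 taken from blank-corrected OD492 curves of an anti-phosphotyrosine peroxidase ELISA. Reaction: 10 min, 25 °C, 3.6 μM ATP, 50 mM Hepes pH 7.4 with 20 mM MgCl2, 0.1 mM MnCl2 and 5% DMSO, on poly-Glu-Tyr-coated wells, started with insect-cell-expressed His-VEGFR-2 cytoplasmic domain.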

[2] = test system: VEGF induced increases in intracellular calcium levels in HUVEC (human umbilical vein endothelial cells); assay: VEGF Stimulated Ca++ Signal in vitro (FLIPR); format: cell-based; conditions: VEGF 5 ng/mL; for IC50: 0.01 to 10.0 μM
Method in brief: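 IC50 values derive from % inhibition of the VEGF (5 ng/mL) calcium response, taken as max-min fluorescence at 516 nm in Fluo-4-loaded HUVEC. Compounds (0.1% DMSO final) were added 30 min before stimulation, at 10 μM or across 0.01–10.0 μM.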

T1 sequence (P35968 786-1356): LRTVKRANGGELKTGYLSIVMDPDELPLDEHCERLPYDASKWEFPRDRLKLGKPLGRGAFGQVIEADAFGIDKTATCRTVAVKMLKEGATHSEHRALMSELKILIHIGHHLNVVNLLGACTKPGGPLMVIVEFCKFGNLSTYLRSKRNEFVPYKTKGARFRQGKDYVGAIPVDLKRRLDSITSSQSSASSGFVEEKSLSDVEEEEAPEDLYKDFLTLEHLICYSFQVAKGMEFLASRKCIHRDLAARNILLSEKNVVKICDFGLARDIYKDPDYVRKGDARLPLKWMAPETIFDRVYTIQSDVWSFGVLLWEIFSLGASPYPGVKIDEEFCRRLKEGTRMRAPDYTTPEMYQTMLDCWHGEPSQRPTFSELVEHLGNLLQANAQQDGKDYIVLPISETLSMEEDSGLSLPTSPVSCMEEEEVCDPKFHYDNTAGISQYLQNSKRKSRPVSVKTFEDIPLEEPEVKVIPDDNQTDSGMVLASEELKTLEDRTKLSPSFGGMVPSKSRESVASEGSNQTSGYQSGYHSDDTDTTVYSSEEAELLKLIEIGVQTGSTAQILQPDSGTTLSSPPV

| Compound | IC50 [1] [nM] | IC50 ([2]; Homo sapiens) [nM] | IC50 [2] [nM] | inhibition at 10 µM ([2]; Homo sapiens) [%] |
| --- | --- | --- | --- | --- |
| CCOc1ccc(NC=C2C(=O)Nc3ccccc32)cc1 [Example 82, 3-[(4-Ethoxyphenylamino)-methylene]-1,3-dihydro-indol-2-one] | 380 | 2500 |  |  |
| Cc1ccc(NC=C2C(=O)Nc3ccccc32)cc1N [Example 212, 3-[(3-Amino-4-methyl-phenylamino)-methylene]-1,3-dihydro-indol-2-one] | 500 | ≤ 1000 | 820 | 96.5 |
| CSc1ccc(NC=C2C(=O)Nc3ccc(F)cc32)cc1 [Example 171, 5-Fluoro-3-[(4-methylsulfanyl-phenylamino)-methylene]-1,3-dihydro-indol-2-one] | 430 |  |  | 38.1 |
| COc1ccc(NC=C2C(=O)Nc3cccc(C)c32)cc1 [Example 59, 3-[(4-Methoxy-phenylamino)-methylene]-4-methyl-1,3-dihydro-indol-2-one] | 180 | 1650 |  | 86 |
| O=C1Nc2ccccc2C1=CNc1cccc(CO)c1 [Example 184, 3-[(3-Hydroxymethyl-phenylamino)-methylene]-1,3-dihydro-indol-2-one] | 610 | 1560 |  | 98.2 |
| COc1cccc(-c2ccc3c(c2)NC(=O)C3=CNc2ccc(N3CCN(C)CC3)cc2)c1 [Example 268, 6-(3-Methoxy-phenyl)-3-{[4-(4-methyl-piperazin-1-yl)-phenylamino]-methylene}-1,3-dihydro-indol-2-one] | 80 | ≥ 10000 |  |  |
| Cc1cccc2c1C(=CNc1ccc(CN3CCCCC3)cc1)C(=O)N2 [Example 256, 4-Methyl-3-[(4-piperidin-1-ylmethyl-phenylamino)-methylene]-1,3-dihydro-indol-2-one] | 190 | ≤ 1000 | 670 |  |
| CN1CCN(c2ccc(NC=C3C(=O)Nc4cc(F)ccc43)cc2)CC1 [Example 230, 6-Fluoro-3-{[4-(4-methyl-piperazin-1-yl)-phenylamino]-methylene}-1,3-dihydro-indol-2-one] | 80 |  |  | 96.4 |
| O=C1Nc2ccc(Cl)cc2C1=CNc1ccc(OCCCN2CCCCC2)cc1 [Example 241, 5-Chloro-3-{[4-(3-piperidin-1-yl-propoxy)-phenylamino]-methylene}-1,3-dihydro-indol-2-one] | 130 | 1010 |  | 95.8 |
| CC(C)c1ccc(NC=C2C(=O)Nc3ccccc32)cc1 [Example 52, 3-[(4-Isopropyl-phenylamino)-methylene]-1,3-dihydro-indol-2-one] | 580 | 2280 |  | 69 |
| COc1cccc(-c2ccc3c(c2)NC(=O)C3=CNc2ccc(N3CCOCC3)cc2)c1 [Example 269, 6-(3-Methoxy-phenyl)-3-{[4-morpholin-4-yl-phenylamino)-methylene]-1,3-dihydro-indol-2-one] | 1680 | ≥ 10000 |  |  |
| CN1CCN(CCCOc2ccc(NC=C3C(=O)Nc4ccccc43)cc2)CC1 [Example 217, 3-({4-[3-(4-Methyl-piperazin-1-yl)-propoxy]-phenylamino}-methylene)-1,3-dihydro-indol-2-one] | 280 | ≤ 1000 | 860 | 97.7 |
| CC(=O)Nc1ccc(NC=C2C(=O)Nc3cccc(C)c32)cc1 [Example 130, N-{4-[(4-Methyl-2-oxo-1,2-dihydro-indol-3-ylidenemethyl)-amino]-phenyl}-acetamide] | 380 | ≤ 1000 | 570 | 97.3 |
| COC(=O)c1ccc(NC=C2C(=O)Nc3cccc(C)c32)cc1OC [Example 93, 2-Methoxy-4-[(4-methyl-2-oxo-1,2-dihydro-indol-3-ylidenemethyl)-amino]-benzoic acid methyl ester] | 630 | 6620 |  | 51.5 |
| O=C1Nc2cccc(F)c2C1=CNc1ccc(CN2CCCCC2)cc1 [Example 257, 4-Fluoro-3-[(4-piperidin-1-ylmethyl-phenylamino)-methylene]-1,3-dihydro-indol-2-one] | 510 | 1630 |  |  |
| O=C(O)Cc1ccc(NC=C2C(=O)Nc3ccc(F)cc32)cc1 [Example 174, {4-[(5-Fluoro-2-oxo-1,2-dihydro-indol-3-ylidenemethyl)-amino]-phenyl}-acetic acid] | 840 | 6020 |  | 76.4 |
| O=C1Nc2ccc(Cl)cc2C1=CNc1ccc(NCCN2CCOCC2)cc1 [Example 245, 5-Chloro-3-{[4-(2-morpholin-4-yl-ethylamino)-phenylamino]-methylene}-1,3-dihydro-indol-2-one] | 140 |  |  | 95.5 |

| Compound | IC50 [1] [nM] | IC50 ([2]; Homo sapiens) [nM] | IC50 [2] [nM] | inhibition at 10 µM ([2]; Homo sapiens) [%] |
| --- | --- | --- | --- | --- |
| Cc1cccc2c1C(=CNc1ccc3c(c1)OCO3)C(=O)N2 [Example 124, 3-(Benzo[1,3]dioxol-5-ylaminomethylene)-4-methyl-1,3-dihydro-indol-2-one] | 520 | 1960 |  | 71.9 |
| O=C1Nc2ccc(Cl)cc2C1=CNc1ccc2cn[nH]c2c1 [Example 103] | 480 | 1040 |  | 96.6 |
| O=C1Nc2ccc(F)cc2C1=CNc1ccc(CO)cc1 [Example 178, 5-Fluoro-3-[(4-hydroxymethyl-phenylamino)-methylene]-1,3-dihydro-indol-2-one] | 530 | 1060 |  | 98.8 |
| CC(O)c1cccc(NC=C2C(=O)Nc3ccccc32)c1 (centres unmarked) [Example 182, 3-{[3-(1-Hydroxy-ethyl)-phenylamino]-methylene}-1,3-dihydro-indol-2-one] | 1650 | 950 |  | 99.3 |
| O=C1Nc2ccccc2C1=CNc1ccc2ncsc2c1 [Example 43, 3-[(6-Benzthioazolylamino)-methylene]-1,3-dihydro-indol-2-one] | 230 | 1740 |  | 84 |
| O=C(O)CCc1cccc(NC=C2C(=O)Nc3ccccc32)c1 [Example 141, 3-{3-[(2-Oxo-1,2-dihydro-indol-3-ylidenemethyl)-amino]-phenyl}-propionic acid] | 510 | 2960 |  | 92.6 |
| O=C1Nc2ccccc2C1=CNc1ccc(OCCCCl)cc1 [Example 198, 3-{[4-(3-Chloro-propoxy)-phenylamino]-methylene}-1,3-dihydro-indol-2-one] | 470 | 7920 |  | 56.3 |
| O=C(O)CCc1ccc(NC=C2C(=O)Nc3ccc(F)cc32)cc1 [Example 165, 3-{4-[(5-Fluoro-2-oxo-1,2-dihydro-indol-3-ylidenemethyl)-amino]-phenyl}-propionic acid] | 360 | 1340 |  | 99.3 |
| Cc1ccc(NC=C2C(=O)Nc3cccc(C)c32)cc1N [Example 213, 3-[(3-Amino-4-methyl-phenylamino)-methylene]-4-methyl-1,3-dihydro-indol-2-one] | 150 | ≤ 1000 | 650 | 95 |
| Cc1ccc(NC=C2C(=O)Nc3cccc(C)c32)cc1O [Example 125, 3-[(3-Hydroxy-4-methyl-phenylamino)-methylene]-4-methyl-1,3-dihydro-indol-2-one] | 670 | 1860 |  | 96.5 |
| COc1ccc(NC=C2C(=O)Nc3ccc(Cl)cc32)cc1OC [Example 102, 5-Chloro-3-[(3,4-dimethoxyphenylamino)-methylene]-1,3-dihydro-indol-2-one] | 650 | 5910 |  | 82.5 |
| COc1ccc(NC=C2C(=O)Nc3cccc(C)c32)c(F)c1 [Example 135, 3-[(2-Fluoro-4-methoxy-phenylamino)-methylene]-4-methyl-1,3-dihydro-indol-2-one] | 7770 |  |  | 28 |
| CCN(CC)c1ccc(NC=C2C(=O)Nc3ccccc32)cc1 [Example 188, 3-[(4-Diethylamino-phenylamino)-methylene]-1,3-dihydro-indol-2-one] | 180 | ≤ 1000 | 530 | 98 |
| Cc1cccc2c1C(=CNc1ccc(CCC(=O)O)cc1)C(=O)N2 [Example 145, 3-{4-[(4-Methyl-2-oxo-1,2-dihydro-indol-3-ylidenemethyl)-amino]-phenyl}-propionic acid] | 190 | ≤ 1000 | 590 | 98.7 |
| O=C1Nc2ccc(Cl)cc2C1=CNc1ccc(N2CCOCC2)cc1 [Example 106, 5-Chloro-3-[(4-morpholinophenylamino)-methylene]-1,3-dihydro-indol-2-one] | 230 | ≤ 1000 | 600 | 96.6 |
| Cc1cccc2c1C(=CNc1cccc(O)c1)C(=O)N2 [Example 60, 3-[(3-Hydroxy-phenylarmino)-methylene]-4-methyl-1,3-dihydro-indol-2-one] | 280 | 1330 |  | 94 |
| CCc1cccc(NC=C2C(=O)Nc3cccc(C)c32)c1 [Example 147, 3-[(3-Ethyl-phenylamino)-methylene]-4-methyl-1,3-dihydro-indol-2-one] | 150 | 5490 |  | 71.6 |
